Laboratory results: paper PMC7355663, “Microscale Thermophoresis as a Screening Tool to Predict Melanin Binding of Drugs” (Pharmaceutics, 2020)

Experiments:
[1] = Label-free microscale thermophoresis (MST) melanin binding assay; conditions: Table S2; 80% excitation power; read-out: Kd, initial fluorescence mode
melanin [2] = experiment: Prediction of unbound ligand fraction in vivo (human RPE-choroid); conditions: human, human RPE-choroid (predicted), 34.8 mg/mL melanin
Method: (§1) Unbound ligand fractions in vivo were calculated considering melanin binding as the only driver of nonspecific tissue binding.
(§2) Linear regression was used to describe the relationship between the Kd values obtained with the MST and the predicted unbound ligand fractions in human RPE-choroid obtained with calculations described above.
(§3) The Kd values obtained with MST consider only one class of binding site, whereas the Sips isotherm (the traditional binding assay) depicts different binding energies and binding sites. […] This approach is relevant to evaluate the melanin binding.

[3] = as above; conditions: class by predicted fraction unbound in vivo, human RPE-choroid
Method: as §1, §2, §3

[4] = Label-free microscale thermophoresis (MST) melanin binding assay
Method: Synthetic melanin was purchased from Sigma Aldrich (#M8631-100 mg). Melanin nanoparticles were prepared as described earlier by Fan et al., and low-binding pipette tips (Maxymum RecoveryTM pipet tips, Corning Incorporated, Salt Lake City, UT, USA) and tubes (No stick microtubes, Alpha Laboratories, Hampshire, UK) were used with both melanin and melanin nanoparticles. Briefly, melanin was dissolved into 1 N NaOH with a concentration of 2 mg/mL and stirred by vortexing. The solution was neutralized by adding an equal volume of 1 N HCl. […] After the final centrifugation, the resulting nanoparticles were suspended into a small volume of sterile water and freeze-dried for 48–72 h (ModulyoD-230, Thermo Savant, Holbrook, NY, USA), and stored at −20 °C until the binding assays.
Melanin binding of each of the 13 model compounds was determined (for the concentrations in the assay, see Table 1). The dilution series of drugs were prepared onto a PCR plate (4titude PCR Plate, Skirted, #4ti-0740, Brooks Life Sciences, Chelmsford, MA, USA) in phosphate buffered saline (PBS, pH 7.4). […] The compound dilutions (10 µL) were transferred into 0.2 mL PCR tube strips (#TBS0201, Bio-Rad Laboratories, Inc., Hercules, CA, USA), and an equal volume of 1 mg/mL melanin nanoparticle dilution was added, resulting in a final melanin concentration of 0.5 mg/mL. At least three biological replicates (individually incubated dilution series) were prepared for each compound (n = 3–5). A reference sample containing only melanin nanoparticles and PBS (pH 7.4) was included in each assay to determine the unbound state in the thermophoresis experiment. Melanin nanoparticles were incubated with the compounds at room temperature for at least 2 h.
After >2 h incubation, the melanin–ligand complexes were mixed gently with a pipette to ensure melanin solution homogeneity and then transferred into capillaries (Monolith NT.115 Premium capillaries, #MOK025, NanoTemper Technologies GmbH, München, Germany). The samples were analyzed with a Monolith NT.115 pico device using MO.Control Software (both from NanoTemper Technologies GmbH, München, Germany) using nano-blue excitation, LED light adjusted to 60% excitation power, and infrared laser (MST power) set to high. […] The equation is based on the Langmuir binding isotherm. […] Equation (1) is a follows:(1) f(c)=Unbound+(Bound−Unbound)×c+c(target)+Kd−(c+c(target)+Kd)^2−4c×c(target)/2c(target) where f(c) is the fraction bound at a given ligand concentration c. Unbound is either the normalized fluorescence signal (Fnorm; MST mode) or raw fluorescence counts (initial fluorescence mode) of the target alone. Bound is either the normalized fluorescence signal or raw fluorescence counts (initial fluorescence mode) of the melanin–ligand complex. Kd is the dissociation constant or binding affinity, and c (target) is the final concentration of the target in the assay.
The normalized fluorescence is the ratio of relative fluorescence of the selected region after heating (hot region) and relative initial fluorescence before the heating (cold region, i.e., relative fluorescence values before the infrared laser was switched on). The MST traces displaying the changes in the relative fluorescence over time (heating) with the selected hot and cold regions are presented in the Supplementary Materials. In the case of ligand-induced changes in the initial raw fluorescence counts, the raw fluorescence counts prior to the heating were used (initial fluorescence mode). If the ligand-induced fluorescence changes were not observed, the normalized fluorescence signals (MST mode) were used to determine the Kd (for additional information, see the Supplementary Materials). […] Affinity Analysis Software.
Kd determination strategies. The Kd values were tested in both initial fluorescence and the above
described MST modes within the MO Affinity Analysis Software (Fig. S1, Table S1) and the Kd values

melanin [5] = experiment: in vitro; conditions: pig, pH 7.4
Method: (§4) The traditional melanin binding assay was conducted with melanin from the porcine RPE-choroid. We used previously published methods for melanin isolation and drug binding. Fresh melanin suspension and test compound solutions were prepared before each experiment. The melanin suspension (in PBS, pH 7.4) was sonicated in a bath sonicator for 30 min (Elmasonic S 40 H, Elma Schmidbauer GmbH, Singen, Germany) before the experiment. The incubation with test compounds took place at 37 °C on a shaker (220 rpm), and the melanin concentration in the assay was 1 mg/mL (0.15 mg/well). In the control samples, PBS buffer (pH 7.4) was used instead of the melanin suspension. Three individual replicates were made for each experiment. After 20 h incubation, the samples were centrifuged at 20,000× g for 20 min, and supernatant containing the unbound ligand was collected for analysis.
(§5) Samples having an estimated concentration of 0.5 µM or higher were analyzed with ultra-high pressure liquid chromatography (UPLC) (Acquity UPLC, Waters, Milford, MA, USA) with UV detection (Photodiode Array Detector, Waters, MA, USA). The separation was carried out on a Luna Omega Polar C18 (1.6 μm, 2.1 × 50 mm^2) column (Phenomenex) at 30 °C. Injection volume was 4 µL. Gradient mode was used for all the compounds with an acetonitrile/15 mM phosphate buffer (pH 2) mobile phase. Gradient duration was 3−5 min depending on the sample (levofloxacin, terazosin, and papaverine).
(§6) All internal standards, namely levofloxacin D8, terazosin D8, and papaverine D3, were purchased from Toronto Research Chemicals (Toronto, ON, Canada). […] Injection volumes were 0.2 μL for terazosin, 0.3 µL for levofloxacin, and 0.15 µl for papaverine with a flow through needle injection system. The mobile phase consisted of 0.1% formic acid (Merck, Darmstadt, Germany) in ultrapure water (A) and 100% LC–MS grade acetonitrile (Honeywell, Seelze, Germany) (B). […] The gradient for levofloxacin was the same as for papaverine, but the total run time was 6 min. The flow rate was 0.3 mL/min for all the compounds.
(§7) Mass spectrometric measurements were carried out using a Waters Xevo TQ-S triple quadruple mass spectrometer coupled with an electrospray ionization (ESI) on a positive mode for all three compounds. Optimized MS-parameters were as follows: capillary 1.5 kV (terazosin and papaverine), 3.5 kV (levofloxacin), cone voltage 80 V (terazosin) and 8 V (terazosin D8), 22 V (papaverine and papaverine D3), 28 V (levofloxacin and levofloxacin D8), source temperature 150 °C, and desolvation temperature 500 °C (terazosin) or 450 °C (papaverine and levofloxacin). Nitrogen (AGA, Helsinki, Finland) was used as the desolvation gas (1000 L·h^−1 terazosin, 800 L·h^−1 papaverine and levofloxacin) and the cone gas (150 L·h^−1), argon (AGA, Helsinki, Finland) as the collision gas. Multiple reaction monitoring (MRM) mode was employed for quantification. […] The resulting data were analyzed with Waters MassLynx V4.1 software. To consider the effect of melanin on the analyses, separate samples containing only melanin in PBS (with no test compound) were also studied.
(§8) The binding parameters were determined with Sips isotherm (Equation (2)) as described by Manzanares et al.. B = (Bmax × [L]^n)/(Kd^n + [L]^n)(2) where B is the amount of bound drug (nmol·mg^−^1); Bmax is the maximum binding capacity (nmol·mg^−^1); [L] is the free drug concentration (µM); n is the heterogeneity index (assuming heterogeneity of the surface of the melanin particles); and Kd represents the dissociation constant (µM).

[6] = Traditional melanin binding assay (equilibrium binding, Sips isotherm)
Method: as §4, §5, §6, §7, §8

SMILES: C[C@H]1COc2c(N3CCN(C)CC3)c(F)cc3c(=O)c(C(=O)O)cn1c23 [Levofloxacin]
- Kd [1]: 54 µM
- fraction unbound at 1 µM (melanin [2]): 0.0033
- Melanin binding class based on traditional assay [3]: high
- Kd ([4]; 0.5 mg/mL (12.5 µM) melanin nanoparticles, PBS pH 7.4, room temperature, 68% confidence, initial fluorescence mode for compounds marked *, otherwise MST mode, read-out: Kd ± Kd Confidence (MST)): 46.5 ± 40.1 µM
- Kd ([4]; Table S2, normalized fluorescence, 60% excitation power, read-out: Kd, MST mode (Fnorm)): 47 µM
- fraction unbound at 20 h, 1 µM (melanin [5]): 0.28
- Target Capacity ± SE, traditional method (Sips isotherm) ([6]; Bmax multiplied with 0.5 mg/mL melanin concentration of the MST assay): 36 ± 5.5 µM
- n ± SE, traditional method (Sips isotherm) ([6]; heterogeneity index, 1 mg/mL melanin, PBS pH 7.4, 37 °C, 20 h): 0.73 ± 0.02
- Bmax ± SE, traditional method (Sips isotherm) ([6]; maximum binding capacity, 1 mg/mL melanin, PBS pH 7.4, 37 °C, 20 h): 72 ± 11 nmol/mg
- Kd ([6]; read-out: Kd ± SE, traditional method (Sips isotherm), 1 mg/mL melanin, PBS pH 7.4, 37 °C, 20 h): 157 ± 56 µM
